pIC50: −log10 of the molar value.
Key:
PAK4 = target: T1, PAK4 (Homo sapiens, UniProt O96013); experiment: HotSpot kinase assay (Reaction Biology Corp.), PAK4 enzyme inhibition; format: biochemical; details: ATP 10 μM
T1 construct: purchased Reaction Biology Corporation (Malvern, PA, USA)
Description: (§1) To examine the enzyme activity, HotSpot kinase assay was performed at Reaction Biology Corporation (Malvern, PA, USA). The kinase and substrate pairs were prepared in reaction buffer: 20 mM HEPES at pH 7.5, 10 mM MgCl2, 1 mM EGTA, 0.02% Brij 35, 0.02 mg/mL BSA, 0.1 mM Na3VO4, 2 mM DTT, and 1% DMSO. Compounds were added into the kinase reaction mixture and incubated for 20 min. Then, ^32 P-ATP was introduced to the mixture to initiate the reaction carried out at 10 μM of ATP concentration. After 2 h at room temperature, the mixture was spotted onto P81 ion exchange paper and kinase activity was then evaluated utilising the filter-binding method. Compounds were tested for single dose enzyme inhibition at a concentration of 20 μM. For the control compound, staurosporine was tested in a 10-dose IC50 mode. To determine the IC50 value, the compounds were tested for 10-doses with 3-fold serial dilution starting at 100 μM.
(§2) Synthesised compounds were evaluated for their in vitro PAK4 enzyme inhibitory activities. In vitro kinase assays were performed using HotSpot kinase assays for relative enzyme inhibitory activity at a single concentration (20 μM) and IC50 assessment at an ATP concentration of 10 μM (Figure 1(B)). […] For the allosteric pocket binder, cyclohexyl group (SPA7012) was preferable to the smaller dimethyl (SPA7011) or hydroxymethyl group (SPA7013), and the aromatic ring (SPA7014) reduced activity compared to the saturated ring (SPA7012). In vitro enzyme IC50 values appeared in the order of SPA7012, SPA7017, and SPA7016. […] Molecular docking analysis was performed on the human PAK4 catalytic domain structure complexed with GNE-2861 (PDB code: 4O0V). The binding pose of SPA7012 overlapped well with the crystal structure of GNE-2861, with the allosteric binder properly positioned in the specific back pocket. The oxygen atom in the tertiary alcohol of the hydrophobic allosteric binder formed hydrogen bonds with the backbone of Phe459 and the side chain of Glu366 (Figure 1(D)). The amine group and nitrogen atom in the pyrazolo[3,4-d]pyrimidine core scaffold also formed hydrogen bonds with Lue398 at the hinge region. Finally, SPA7012 was decided as a lead compound for further examination with satisfactory potency and subtype selectivity.

PAK3 = target: T2, PAK3 (Homo sapiens, UniProt O75914); experiment: HotSpot kinase assay, PAK subtype selectivity; format: biochemical; details: relative percentage inhibition at 20 μM with staurosporine
T2 construct: purchased Reaction Biology Corporation (Malvern, PA, USA)
T2 sequence (O75914 whole entry): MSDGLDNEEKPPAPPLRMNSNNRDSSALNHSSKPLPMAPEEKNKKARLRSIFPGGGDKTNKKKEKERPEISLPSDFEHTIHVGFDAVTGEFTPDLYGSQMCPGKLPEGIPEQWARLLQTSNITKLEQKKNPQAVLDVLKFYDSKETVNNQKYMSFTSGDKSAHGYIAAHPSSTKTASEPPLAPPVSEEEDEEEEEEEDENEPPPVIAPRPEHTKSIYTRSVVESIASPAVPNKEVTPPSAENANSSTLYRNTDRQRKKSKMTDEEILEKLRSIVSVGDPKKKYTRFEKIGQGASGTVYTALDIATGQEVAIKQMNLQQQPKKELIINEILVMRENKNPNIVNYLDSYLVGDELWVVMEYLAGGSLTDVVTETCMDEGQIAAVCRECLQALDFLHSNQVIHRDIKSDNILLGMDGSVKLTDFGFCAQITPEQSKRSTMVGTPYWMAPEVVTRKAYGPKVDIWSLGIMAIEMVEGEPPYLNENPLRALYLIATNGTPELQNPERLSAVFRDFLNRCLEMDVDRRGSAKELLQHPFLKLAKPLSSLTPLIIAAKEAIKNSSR
Description: as §1, §2

primary hepatocytes [1] = experiment: Hypoxia-reoxygenation (H/R) injury in primary hepatocytes; format: cell-based, mouse
Description: (§3) Primary hepatocytes were prepared from 8 to 10 week old C57BL/6 male mice by perfusion. […] Hepatocytes were resuspended in DMEM/F12 supplemented with 10% FBS, 10 units/mL penicillin, 10 μg/mL streptomycin, and 10 nM dexamethasone mixed with 42% Percoll, and then centrifuged for 5 min at 1,300 rpm. The cells were plated at 1 × 10^6 cells/well in 6-well culture dishes.
Primary hepatocytes were incubated at 37 °C in anaerobic jars (Oxoid, Basingstoke, Hampshire, UK) with oxygen-absorbing packs (AnaeroGen, Oxoid). […] Following various periods of hypoxia, reoxygenation of cells was initiated by opening the chamber and replacing the hypoxic medium with an oxygenated medium.
H/R-induced apoptosis was monitored using the Annexin V-propidium iodide (PI) double-staining kit (BD Biosciences, San Jose, CA, USA) according to the instructions of the manufacturer, allowing quantification by flow cytometry (BD Biosciences). The proportion of apoptotic cells was defined as the percentage of Annexin V-positive cells […].
Intracellular ROS levels were measured using 2′,7′-dichlorofluorescein diacetate (DCF-DA), which converts to fluorescent […] in cells when exposed to ROS. Briefly, after H/R injury, hepatocytes were loaded with 20 μM DCF-DA (Invitrogen) for 10 min at 37 °C. The DCF fluorescence intensity was measured by fluorescence spectrophotometry with 485 nm excitation and 538 nm emission and expressed as a percentage relative to control.
Alanine aminotransferase (ALT) and aspartate aminotransferase (AST) in serum (Asan Pharm, Seoul, Korea), glutathione (GSH, Arbour Assays, Ann Arbour, MI, USA), malondialdehyde (MDA, ab118970, Abcam, Cambridge, UK) in liver tissues, and lactate dehydrogenase (LDH, Biovision, Milpitas, CA, USA) in culture medium were analysed using specific kits. Serum levels of IL-1β, IL-6, TNF-α, and CCL-2 were detected using ELISA kits (all from Invitrogen).
Total RNA was extracted from frozen liver tissues or primary hepatocytes using TRIzol reagent (Invitrogen). RNA was treated with isopropanol, dried using 70% ethanol, and dissolved in diethyl pyrocarbonate-treated distilled water. First-strand cDNA was generated using the random hexamer primer provided in the first-strand cDNA synthesis kit (Applied Biosystems, Foster City, CA, USA). Specific primers were designed using PrimerBank (https://pga.mgh.harvard.edu/primerbank, Table 1). qPCR reactions were performed in a final volume of 10μ L containing 10 ng reverse-transcribed total RNA, 200 nM forward and reverse primers, and PCR master mixture. qPCR was performed in 384-well plates using an ABI Prism™ 7900HT Sequence Detection System (Applied Biosystems).
Nuclear and cytoplasmic fractions were prepared using the NE-PER Nuclear and Cytoplasmic Extraction kit (Thermo Fisher Scientific, Waltham, MA, USA). Tissue homogenates or cell lysates (15 μg) were separated by 6–14% SDS-PAGE and transferred to PVDF membranes. After blocking with 5% skim milk, blots were probed with primary antibodies against: PAK4 (G222), p-PAK4 (S474), p-IKKβ (S176/180), p-IκBα (S32), p-p65 (S536), cleaved caspase-3 (Asp175), Bax (Cell Signalling Technology, Beverly, MA, USA), GAPDH (A531), lamin B1(L75), Bcl2(P65), NQO1 (F252) (Bioworld Technology, St Louis Park, MN, USA), NF-κB p65 (C-20), IKBα (H-4), IKKβ (10A9B6) (Santa Cruz Biotechnology, Dallas, TX, USA), Nrf2 (Proteintech, Rosemont, IL, USA), HO-1 (Enzo Life Sciences, Farmingdale, New York, USA), and p-Thr (Merck KGaA, Darmstadt, Germany). For co-immunoprecipitations, 600 μg protein was incubated with anti-Nrf2 antibodies (Proteintech, Sankt Leon-Rot, Germany) overnight at 4 °C followed by protein G agarose for 2 h at 4 °C. Blots were probed with antibodies against PAK4, Nrf2, or p-Thr. Immunoreactive bands were detected with a Las-4000 imager (GE Healthcare Life Science, Pittsburgh, PA, USA).

primary hepatocytes [2] = experiment: MTT assay for cell viability; format: cell-based, mouse; details: SPA7012 at a concentration of less than 1 μM
Description: as §3
Cell viability was determined by analysing the reduction of 3–(4, 5-dimethylthiazol-2-yl)-2, 5-diphenyltetrazolium bromide (MTT) to formazan.

T1 sequence (O96013 whole entry): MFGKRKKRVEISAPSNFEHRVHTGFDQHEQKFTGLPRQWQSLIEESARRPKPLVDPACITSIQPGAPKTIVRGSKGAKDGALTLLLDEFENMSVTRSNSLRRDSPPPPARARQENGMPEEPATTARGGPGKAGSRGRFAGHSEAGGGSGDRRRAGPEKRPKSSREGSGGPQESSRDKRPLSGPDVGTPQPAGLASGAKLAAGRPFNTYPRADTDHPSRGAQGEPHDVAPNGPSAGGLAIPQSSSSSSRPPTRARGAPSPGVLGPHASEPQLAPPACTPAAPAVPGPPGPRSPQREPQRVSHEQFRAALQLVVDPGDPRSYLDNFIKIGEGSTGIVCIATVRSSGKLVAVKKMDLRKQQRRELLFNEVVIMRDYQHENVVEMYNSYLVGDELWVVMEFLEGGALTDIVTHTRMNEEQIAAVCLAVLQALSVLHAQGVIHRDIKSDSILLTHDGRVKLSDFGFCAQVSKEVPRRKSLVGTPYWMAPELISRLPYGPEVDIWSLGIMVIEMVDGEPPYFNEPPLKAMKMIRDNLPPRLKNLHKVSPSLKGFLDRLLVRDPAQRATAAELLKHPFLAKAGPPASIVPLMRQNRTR

## Cc1nn(-c2cccc(C#CC3(O)CCCCC3)c2)c2ncnc(N)c12 [Compound 14b, 3-(4-Amino-3-methylpyrazolo[3,4-d]pyrimidin-1-yl)phenylethynylcyclohexan-1-ol]
PAK4; 10-dose, 3-fold serial dilution starting at 100 μM
  pIC50: 6.11
PAK4; relative percentage inhibition at 20 μM of compounds with staurosporine, read-out: PAK4 enzyme inhibition % inhibitory activity
  inhibition at 20 µM: 97%
PAK3
  PAK3 % inhibitory activity: 5%
Primary hepatocytes [1]; 1 μM
  H/R-induced oxidative stress (DCF fluorescence, MDA, GSH): decrease
Primary hepatocytes [1]; 1 μM before reoxygenation, 12 h reoxygenation, vs only H/R
  Cell damage (LDH release) after H/R: markedly decreased
Primary hepatocytes [1]; 1 μM, Annexin-V staining and Western blotting
  H/R-induced apoptotic cell death: decrease
Primary hepatocytes [1]; 1 μM, H/R, vs control group
  Phosphorylation levels of IKKβ and p65 in primary hepatocytes: decreased
  Protein levels of IκBα in primary hepatocytes: increased
Primary hepatocytes [1]; 1 μM, culture media protein and hepatocyte mRNA
  H/R-induced cytokine release: decrease
Primary hepatocytes [2]
  Effect on cell viability (MTT): little effect

From paper PMC9354638, “Targeting p21-activated kinase 4 (PAK4) with pyrazolo[3,4-d]pyrimidine derivative SPA7012 attenuates hepatic ischaemia-reperfusion injury in mice” (Journal of Enzyme Inhibition and Medicinal Chemistry, 2022)
